ChEMBL document CHEMBL4507264, “Data for DCP probe BAY-7598” (2021)

Legend:
[1] = target: Dual specificity protein kinase CLK4 (Homo sapiens) (UniProt Q9HAZ1); conditions: Compound concentration 1000.0 nM
[2] = target: Non-receptor tyrosine-protein kinase TYK2 (Homo sapiens) (UniProt P29597); conditions: Compound concentration 1000.0 nM
[3] = test system: Hepatocyte growth factor receptor (Homo sapiens), P08581 [Y1235D]; conditions: Compound concentration 1000.0 nM
[4] = test system: Tyrosine-protein kinase ABL1 (Homo sapiens), P00519 [H396P]; conditions: Compound concentration 1000.0 nM
[5] = target: Cyclin-dependent kinase 9 (Homo sapiens) (UniProt P50750); conditions: Compound concentration 1000.0 nM
[6] = target: STE20-like serine/threonine-protein kinase (Homo sapiens) (UniProt Q9H2G2); conditions: Compound concentration 1000.0 nM
[7] = target: Fibroblast growth factor receptor 1 (Homo sapiens) (UniProt P11362); conditions: Compound concentration 1000.0 nM
[8] = target: Phosphatidylinositol 4-phosphate 3-kinase C2 domain-containing subunit beta (Homo sapiens) (UniProt O00750); conditions: Compound concentration 1000.0 nM
[9] = target: T1, D(4) dopamine receptor (Homo sapiens) (UniProt P21917); conditions: Compound concentration 10.0 uM
T1 sequence (whole entry): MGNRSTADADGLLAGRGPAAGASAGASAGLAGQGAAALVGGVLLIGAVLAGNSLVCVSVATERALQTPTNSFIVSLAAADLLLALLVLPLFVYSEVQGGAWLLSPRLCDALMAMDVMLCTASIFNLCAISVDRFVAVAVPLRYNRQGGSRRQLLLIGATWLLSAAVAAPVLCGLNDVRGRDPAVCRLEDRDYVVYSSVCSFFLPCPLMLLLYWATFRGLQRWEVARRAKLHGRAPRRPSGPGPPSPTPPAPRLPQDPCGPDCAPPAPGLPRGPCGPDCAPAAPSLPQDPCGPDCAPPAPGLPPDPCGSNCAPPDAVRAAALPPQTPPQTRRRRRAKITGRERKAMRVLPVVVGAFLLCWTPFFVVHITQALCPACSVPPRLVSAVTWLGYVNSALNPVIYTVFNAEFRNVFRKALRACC

[10] = target: Rhodopsin kinase GRK7 (Homo sapiens) (UniProt Q8WTQ7); conditions: Compound concentration 1000.0 nM
[11] = test system: Mast/stem cell growth factor receptor Kit (Homo sapiens), P10721 [V559D]; conditions: Compound concentration 1000.0 nM
[12] = target: Epidermal growth factor receptor (Homo sapiens) (UniProt P00533); conditions: Compound concentration 1000.0 nM
[13] = target: Calcium/calmodulin-dependent protein kinase kinase 2 (Homo sapiens) (UniProt Q96RR4); conditions: Compound concentration 1000.0 nM
[14] = target: Serine/threonine-protein kinase tousled-like 1 (Homo sapiens) (UniProt Q9UKI8); conditions: Compound concentration 1000.0 nM
[15] = target: Ribosomal protein S6 kinase beta-1 (Homo sapiens) (UniProt P23443); conditions: Compound concentration 1000.0 nM
[16] = target: Serine/threonine-protein kinase 33 (Homo sapiens) (UniProt Q9BYT3); conditions: Compound concentration 1000.0 nM
[17] = target: Tyrosine-protein kinase Lck (Homo sapiens) (UniProt P06239); conditions: Compound concentration 1000.0 nM
[18] = target: Non-receptor tyrosine-protein kinase TNK1 (Homo sapiens) (UniProt Q13470); conditions: Compound concentration 1000.0 nM
[19] = target: Serine/threonine-protein kinase 24 (Homo sapiens) (UniProt Q9Y6E0); conditions: Compound concentration 1000.0 nM
[20] = target: Receptor tyrosine-protein kinase erbB-3 (Homo sapiens) (UniProt P21860); conditions: Compound concentration 1000.0 nM
[21] = target: Atypical kinase COQ8B, mitochondrial (Homo sapiens) (UniProt Q96D53); conditions: Compound concentration 1000.0 nM
[22] = test system: Receptor-type tyrosine-protein kinase FLT3 (Homo sapiens), P36888 [UNDEFINED MUTATION]; conditions: Compound concentration 1000.0 nM
[23] = target: Megakaryocyte-associated tyrosine-protein kinase (Homo sapiens) (UniProt P42679); conditions: Compound concentration 1000.0 nM
[24] = target: Serine/threonine-protein kinase MARK2 (Homo sapiens) (UniProt Q7KZI7); conditions: Compound concentration 1000.0 nM
[25] = target: Tyrosine-protein kinase BTK (Homo sapiens) (UniProt Q06187); conditions: Compound concentration 1000.0 nM
[26] = target: Cyclin-dependent kinase 17 (Homo sapiens) (UniProt Q00537); conditions: Compound concentration 1000.0 nM
[27] = test system: Hepatocyte growth factor receptor (Homo sapiens), P08581 [M1250T]; conditions: Compound concentration 1000.0 nM
[28] = target: Ephrin type-A receptor 1 (Homo sapiens) (UniProt P21709); conditions: Compound concentration 1000.0 nM
[29] = target: Mitogen-activated protein kinase kinase kinase 3 (Homo sapiens) (UniProt Q99759); conditions: Compound concentration 1000.0 nM
[30] = target: Serine/threonine-protein kinase PAK 4 (Homo sapiens) (UniProt O96013); conditions: Compound concentration 1000.0 nM
[31] = target: Serine/threonine-protein kinase pim-1 (Homo sapiens) (UniProt P11309); conditions: Compound concentration 1000.0 nM
[32] = target: Cyclin-dependent kinase 11B (Homo sapiens) (UniProt P21127); conditions: Compound concentration 1000.0 nM
[33] = target: Serine/threonine-protein kinase 4 (Homo sapiens) (UniProt Q13043); conditions: Compound concentration 1000.0 nM
[34] = target: Proto-oncogene tyrosine-protein kinase ROS (Homo sapiens) (UniProt P08922); conditions: Compound concentration 1000.0 nM
[35] = target: Vascular endothelial growth factor receptor 2 (Homo sapiens) (UniProt P35968); conditions: Compound concentration 1000.0 nM
[36] = target: Leucine-rich repeat serine/threonine-protein kinase 2 (Homo sapiens) (UniProt Q5S007); conditions: Compound concentration 1000.0 nM
[37] = target: G protein-coupled receptor kinase 3 (Homo sapiens) (UniProt P35626); conditions: Compound concentration 1000.0 nM
[38] = target: Activin receptor type-1 (Homo sapiens) (UniProt Q04771); conditions: Compound concentration 1000.0 nM
[39] = target: Casein kinase I isoform gamma-1 (Homo sapiens) (UniProt Q9HCP0); conditions: Compound concentration 1000.0 nM

Chain of Cyclin-dependent kinase 9 (Homo sapiens) (P50750 whole entry): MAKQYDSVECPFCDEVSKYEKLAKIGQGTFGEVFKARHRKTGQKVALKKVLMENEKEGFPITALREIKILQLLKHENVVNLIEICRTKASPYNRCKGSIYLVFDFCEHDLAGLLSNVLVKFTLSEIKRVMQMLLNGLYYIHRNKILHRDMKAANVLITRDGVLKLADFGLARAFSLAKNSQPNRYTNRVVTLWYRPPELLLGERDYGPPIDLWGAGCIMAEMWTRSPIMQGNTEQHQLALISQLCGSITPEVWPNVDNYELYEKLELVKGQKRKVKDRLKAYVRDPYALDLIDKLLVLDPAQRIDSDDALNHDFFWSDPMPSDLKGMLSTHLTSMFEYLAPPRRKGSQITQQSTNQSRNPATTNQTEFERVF
Chain of Non-receptor tyrosine-protein kinase TNK1 (Homo sapiens) (Q13470 whole entry): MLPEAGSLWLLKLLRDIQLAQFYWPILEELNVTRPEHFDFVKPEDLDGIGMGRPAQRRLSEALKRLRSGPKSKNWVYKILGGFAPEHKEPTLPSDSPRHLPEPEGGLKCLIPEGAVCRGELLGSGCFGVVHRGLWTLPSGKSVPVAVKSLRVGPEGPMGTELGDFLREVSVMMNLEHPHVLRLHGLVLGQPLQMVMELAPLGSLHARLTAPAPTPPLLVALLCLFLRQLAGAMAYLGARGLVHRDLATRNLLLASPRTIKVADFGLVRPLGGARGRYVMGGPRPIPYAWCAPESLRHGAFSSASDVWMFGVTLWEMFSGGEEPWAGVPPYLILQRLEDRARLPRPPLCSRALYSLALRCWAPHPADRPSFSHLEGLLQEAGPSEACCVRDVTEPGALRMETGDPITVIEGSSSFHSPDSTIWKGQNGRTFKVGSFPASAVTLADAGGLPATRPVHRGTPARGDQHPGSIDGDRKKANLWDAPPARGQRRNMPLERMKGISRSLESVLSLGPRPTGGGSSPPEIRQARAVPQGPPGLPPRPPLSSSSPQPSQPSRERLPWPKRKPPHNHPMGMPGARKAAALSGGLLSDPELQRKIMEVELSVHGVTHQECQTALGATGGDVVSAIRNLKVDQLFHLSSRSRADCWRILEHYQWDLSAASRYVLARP
Chain of G protein-coupled receptor kinase 3 (Homo sapiens) (P35626 whole entry): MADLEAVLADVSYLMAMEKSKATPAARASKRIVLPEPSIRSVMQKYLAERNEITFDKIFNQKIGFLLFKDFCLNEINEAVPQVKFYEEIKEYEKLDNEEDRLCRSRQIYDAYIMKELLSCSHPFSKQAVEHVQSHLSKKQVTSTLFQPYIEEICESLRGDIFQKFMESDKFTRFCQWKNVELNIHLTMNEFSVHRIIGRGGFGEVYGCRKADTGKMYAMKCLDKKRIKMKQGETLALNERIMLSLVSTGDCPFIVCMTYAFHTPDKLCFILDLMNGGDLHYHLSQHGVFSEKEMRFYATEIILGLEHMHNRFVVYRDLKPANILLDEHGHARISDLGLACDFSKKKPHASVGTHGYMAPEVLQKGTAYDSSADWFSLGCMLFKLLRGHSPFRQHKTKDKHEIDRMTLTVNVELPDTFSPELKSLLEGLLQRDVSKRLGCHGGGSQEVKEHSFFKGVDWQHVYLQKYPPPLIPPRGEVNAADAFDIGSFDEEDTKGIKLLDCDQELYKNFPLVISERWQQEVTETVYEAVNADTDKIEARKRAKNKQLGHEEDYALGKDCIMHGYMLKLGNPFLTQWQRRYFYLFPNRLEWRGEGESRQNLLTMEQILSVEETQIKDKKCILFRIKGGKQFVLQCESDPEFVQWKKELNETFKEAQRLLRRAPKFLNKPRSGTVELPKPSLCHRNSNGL
Chain of Receptor tyrosine-protein kinase erbB-3 (Homo sapiens) (P21860 whole entry): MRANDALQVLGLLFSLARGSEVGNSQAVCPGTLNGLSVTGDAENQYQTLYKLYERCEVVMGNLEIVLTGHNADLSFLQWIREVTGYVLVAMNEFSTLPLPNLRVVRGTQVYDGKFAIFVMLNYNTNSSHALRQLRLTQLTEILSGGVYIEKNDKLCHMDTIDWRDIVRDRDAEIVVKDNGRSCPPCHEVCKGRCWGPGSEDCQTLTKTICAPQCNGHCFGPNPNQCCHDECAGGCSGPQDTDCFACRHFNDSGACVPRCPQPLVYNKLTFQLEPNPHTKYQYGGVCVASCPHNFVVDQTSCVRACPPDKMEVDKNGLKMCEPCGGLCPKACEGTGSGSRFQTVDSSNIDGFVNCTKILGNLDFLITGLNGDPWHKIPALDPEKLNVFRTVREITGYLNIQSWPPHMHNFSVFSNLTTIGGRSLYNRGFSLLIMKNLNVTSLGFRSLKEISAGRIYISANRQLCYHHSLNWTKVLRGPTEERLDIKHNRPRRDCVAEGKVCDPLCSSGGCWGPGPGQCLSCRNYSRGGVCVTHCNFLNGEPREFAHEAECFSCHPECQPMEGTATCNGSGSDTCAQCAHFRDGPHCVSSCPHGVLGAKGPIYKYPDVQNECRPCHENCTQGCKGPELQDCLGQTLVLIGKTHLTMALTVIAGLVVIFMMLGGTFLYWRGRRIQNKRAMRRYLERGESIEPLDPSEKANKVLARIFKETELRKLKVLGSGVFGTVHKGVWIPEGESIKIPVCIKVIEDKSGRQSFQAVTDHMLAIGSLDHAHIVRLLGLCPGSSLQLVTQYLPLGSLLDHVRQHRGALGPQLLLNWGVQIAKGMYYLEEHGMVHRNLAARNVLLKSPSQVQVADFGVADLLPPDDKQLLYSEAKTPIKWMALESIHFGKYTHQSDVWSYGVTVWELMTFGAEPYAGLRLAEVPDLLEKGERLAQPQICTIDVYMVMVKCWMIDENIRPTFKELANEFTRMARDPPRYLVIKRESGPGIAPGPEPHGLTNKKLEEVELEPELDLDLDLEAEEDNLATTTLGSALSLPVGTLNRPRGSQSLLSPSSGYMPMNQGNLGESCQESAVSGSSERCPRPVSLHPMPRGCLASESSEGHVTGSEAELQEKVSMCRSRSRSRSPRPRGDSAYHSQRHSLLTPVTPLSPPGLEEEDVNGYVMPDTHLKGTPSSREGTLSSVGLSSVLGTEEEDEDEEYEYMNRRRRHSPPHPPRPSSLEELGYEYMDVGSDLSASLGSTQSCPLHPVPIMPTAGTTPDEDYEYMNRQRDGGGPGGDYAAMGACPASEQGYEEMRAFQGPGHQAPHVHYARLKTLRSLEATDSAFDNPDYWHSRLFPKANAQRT
Chain of Serine/threonine-protein kinase 4 (Homo sapiens) (Q13043 whole entry): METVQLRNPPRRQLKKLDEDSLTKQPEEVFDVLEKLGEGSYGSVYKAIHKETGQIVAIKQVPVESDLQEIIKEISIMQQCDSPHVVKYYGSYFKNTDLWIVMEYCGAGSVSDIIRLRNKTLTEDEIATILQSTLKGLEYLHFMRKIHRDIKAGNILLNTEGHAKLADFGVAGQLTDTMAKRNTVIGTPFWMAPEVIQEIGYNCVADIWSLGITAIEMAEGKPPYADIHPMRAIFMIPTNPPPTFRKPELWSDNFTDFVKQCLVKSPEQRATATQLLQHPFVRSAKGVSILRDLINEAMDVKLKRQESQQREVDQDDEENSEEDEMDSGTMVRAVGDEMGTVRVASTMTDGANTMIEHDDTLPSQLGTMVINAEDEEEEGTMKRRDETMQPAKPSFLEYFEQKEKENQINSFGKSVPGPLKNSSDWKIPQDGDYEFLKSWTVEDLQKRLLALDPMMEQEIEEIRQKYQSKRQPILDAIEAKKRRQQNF
Chain of Serine/threonine-protein kinase tousled-like 1 (Homo sapiens) (Q9UKI8 whole entry): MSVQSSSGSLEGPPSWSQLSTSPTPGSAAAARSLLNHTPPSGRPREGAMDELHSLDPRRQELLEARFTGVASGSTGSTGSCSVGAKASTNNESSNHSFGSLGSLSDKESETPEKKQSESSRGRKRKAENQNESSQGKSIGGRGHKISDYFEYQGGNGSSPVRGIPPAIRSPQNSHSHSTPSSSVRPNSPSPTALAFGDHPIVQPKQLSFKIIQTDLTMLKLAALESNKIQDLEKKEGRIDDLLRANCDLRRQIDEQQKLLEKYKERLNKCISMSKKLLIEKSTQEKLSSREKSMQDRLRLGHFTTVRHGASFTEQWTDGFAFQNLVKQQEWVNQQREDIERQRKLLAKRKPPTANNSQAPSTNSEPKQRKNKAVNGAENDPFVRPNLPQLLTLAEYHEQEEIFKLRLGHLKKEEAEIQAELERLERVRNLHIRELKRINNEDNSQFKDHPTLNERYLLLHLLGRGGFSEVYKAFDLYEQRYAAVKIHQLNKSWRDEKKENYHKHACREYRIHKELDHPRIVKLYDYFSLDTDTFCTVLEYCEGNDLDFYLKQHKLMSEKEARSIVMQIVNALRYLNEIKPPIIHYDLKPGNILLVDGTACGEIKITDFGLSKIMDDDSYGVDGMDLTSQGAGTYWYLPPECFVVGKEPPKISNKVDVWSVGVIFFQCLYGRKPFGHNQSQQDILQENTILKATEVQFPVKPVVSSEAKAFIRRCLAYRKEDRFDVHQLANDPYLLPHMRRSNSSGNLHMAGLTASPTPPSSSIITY
Chain of Activin receptor type-1 (Homo sapiens) (Q04771 whole entry, canonical isoform): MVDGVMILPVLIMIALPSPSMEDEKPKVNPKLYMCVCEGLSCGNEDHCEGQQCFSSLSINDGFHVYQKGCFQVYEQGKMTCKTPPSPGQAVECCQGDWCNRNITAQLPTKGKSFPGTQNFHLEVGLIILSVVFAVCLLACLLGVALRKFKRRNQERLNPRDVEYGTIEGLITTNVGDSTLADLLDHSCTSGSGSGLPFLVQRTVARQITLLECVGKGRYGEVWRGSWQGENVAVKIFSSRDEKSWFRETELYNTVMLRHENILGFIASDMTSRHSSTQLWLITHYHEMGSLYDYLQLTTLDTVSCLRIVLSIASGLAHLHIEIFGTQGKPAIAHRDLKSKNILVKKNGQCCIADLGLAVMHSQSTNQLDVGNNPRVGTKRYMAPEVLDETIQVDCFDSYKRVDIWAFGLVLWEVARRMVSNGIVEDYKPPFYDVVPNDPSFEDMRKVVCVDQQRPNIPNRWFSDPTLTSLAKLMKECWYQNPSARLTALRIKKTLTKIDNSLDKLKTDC

Structure (SMILES)	residual activity [1] [%]	residual activity [2] [%]	residual activity [3] [%]	residual activity [4] [%]	residual activity [5] [%]	residual activity [6] [%]	residual activity [7] [%]	residual activity [8] [%]	inhibition [9] [%]	residual activity [10] [%]	residual activity [11] [%]	residual activity [12] [%]	residual activity [13] [%]	residual activity [14] [%]	residual activity [15] [%]	residual activity [16] [%]	residual activity [17] [%]	residual activity [18] [%]	residual activity [19] [%]	residual activity [20] [%]	further results
O=C(O)[C@H]1[C@H](Cn2nnc3ccccc3c2=O)CC[C@@H]1C(=O)c1ccc(OCCC2CCOCC2)cc1 [BAY-7598]	100	41	100	94	72	96	98	90	12.5	100	100	88	90	96	100	98	78	100	90	69	residual activity [21]: 87%; residual activity [22]: 93%; residual activity [23]: 83%; residual activity [24]: 100%; residual activity [25]: 100%; residual activity [26]: 74%; residual activity [27]: 100%; residual activity [28]: 100%; residual activity [29]: 100%; residual activity [30]: 91%; residual activity [31]: 95%; residual activity [32]: 88%; residual activity [33]: 98%; residual activity [34]: 95%; residual activity [35]: 88%; residual activity [36]: 90%; residual activity [37]: 100%; residual activity [38]: 100%; residual activity [39]: 94%
O=C(O)[C@@H]1[C@@H](Cn2nnc3ccccc3c2=O)CC[C@H]1C(=O)c1ccc(OCCC2CCOCC2)cc1 [BAY-694]	100	58	98	97	100	88	100	100	21.9	100	100	90	100	100	100	69	93	100	99	94	residual activity [21]: 64%; residual activity [22]: 100%; residual activity [23]: 95%; residual activity [24]: 100%; residual activity [25]: 100%; residual activity [26]: 88%; residual activity [27]: 100%; residual activity [28]: 100%; residual activity [29]: 100%; residual activity [30]: 89%; residual activity [31]: 100%; residual activity [32]: 99%; residual activity [33]: 98%; residual activity [34]: 95%; residual activity [35]: 78%; residual activity [36]: 100%; residual activity [37]: 100%; residual activity [38]: 100%; residual activity [39]: 99%
